Source: publication PMC12430133, “GABAergic and α-Glucosidase-Inhibitory Potentials of Fractions and Isolated Xanthones from Hypericum revolutum Vahl subsp. revolutum” (Molecules, 2025)
pIC50: −log10 of the molar value.

Tests used:
[1] = target: T1, GABAA receptor subtype (α1, β2, and γ2S subunits) (Homo sapiens, UniProt P14867+P18507+P47870); assay: Functional GABAA receptor assay: modulation of GABA-induced chloride currents (IGABA), two-microelectrode voltage clamp in Xenopus laevis oocytes; type: cell-based; settings: 100 µg/mL, isolated compounds; for IGABA potentiation: GABA EC10, mean ± S.E.M
T1 construct: expressed in transfected cells; host or cells: Xenopus laevis oocytes (Ecocyte), cRNA-injected
Description: The effects of both fractions and isolated compounds from the PS and PL extracts were determined on GABA-induced chloride currents through the predominantly occurring GABAA receptor subtype (comprising α1, β2, and γ2S subunits). GABAA receptors were heterologously expressed in Xenopus laevis (Grade I–II) oocytes as described previously. The fractions and compounds were tested at a concentration of 100 µg/mL. For the fractions, a 100 µg/mL concentration was used in assessing their IGABA modulatory potential because previous studies have also used the same concentration to assess the IGABA modulatory potential of plant extracts and/or fractions in a similar experimental model. For the compounds, we tested their IGABA modulatory potential at 100 µg/mL to maintain a consistent concentration as the fractions, which provides a comparative perspective about the efficacy of the compounds relative to the fractions.
In brief, defolliculated oocytes were obtained from Ecocyte (Dortmund, Germany) and injected with 50–75 nL of nuclease-free water containing a mixture (ratio 1:1:10) of cRNAs encoding for the major GABAA receptor subtype (α1, β2, and γ2S; concentrations ranging between 100 and 2000 ng/μL/subunit) using a Nanoject III microinjector (Drummond Scientific Company, Broomall, PA, USA). Oocytes were stored at 18 °C in ND96 solution composed of 90 mM NaCl, 1 mM KCl, 1 mM MgCl2·6H2O, 1 mM CaCl2, and 5 mM 2-(4-(2-hydroxyethyl)-1-piperazinyl)ethanesulfonic acid (HEPES), with pH adjusted to 7.4 using 1 M NaOH and supplemented with 100 U/mL penicillin and 10 µg/mL streptomycin. Functional characterisation was then carried out 1–3 days post-injection using two-microelectrode voltage-clamp (TEVC) recordings holding oocytes at −70 mV using a TURBO TEC 03C amplifier (NPI Electronic, Tamm, Germany) connected to an Axon Digidata 1440A digitiser (Molecular Devices, Sunnyvale, CA, USA). Data acquisition was performed using pCLAMP software version 10.3 (Molecular Devices), and current traces were analysed offline. Microelectrodes were filled with 2 M KCl and had resistances between 1 and 3 MΩ. GABA and test compounds were applied using a TECAN Miniprep 60 (npi electronic, Tamm, Germany), permitting semi-automation of the experiments coupled to a fast perfusion system. The oocyte-containing chamber was perfused with 200 µL GABA-containing solutions at a volume rate between 150 and 200 µL/s to elicit chloride currents through GABAA receptors (IGABA). Modulation of IGABA by the compounds was measured at a GABA concentration eliciting 10% of the maximal current amplitude (EC10), peak amplitudes were measured, and the effect was calculated using the following formula: IGABA potentiation%=Amplitude IGABA−sample−Amplitude IGABA−control/Amplitude IGABA−control×100
IGABA+Sample is the current induced by co-application of GABA and the tested sample, while IGABA−control is the current induced by application of GABA alone.

α-glucosidase = assay: In vitro α-glucosidase-inhibitory assay; type: biochemical
Description: The alpha-glucosidase-inhibitory potency of the fractions was assessed by determining whether the fractions can inhibit the activity of α-glucosidase, a carbohydrate-digesting enzyme. The fractions were tested at a concentration of 60 µg/mL.
A previous method [66] was adopted to perform the glucosidase inhibition assay. It was performed on a 96-well transparent plate. […] Next, 50 µL of 10 mM 4-nitrophenyl-β-D-glucopyranoside substrate solution (dissolved in 100 mM phosphate buffer, pH 6.8) was added, and incubation continued for an additional 20 min under the same incubation conditions. After incubation, the enzyme-substrate reaction was stopped by adding 100 µL of a 0.1 M Na2CO3 solution, and absorbance was measured at 405 nm. The absorbances were blanked using the sample and solvent blanks. The enzyme inhibition activity of the samples was computed using the formula below: Enzyme inhibition activity%=Absorbance of control−Absorbance of test/Absorbance of control×100

T1 sequence (P14867 28-456): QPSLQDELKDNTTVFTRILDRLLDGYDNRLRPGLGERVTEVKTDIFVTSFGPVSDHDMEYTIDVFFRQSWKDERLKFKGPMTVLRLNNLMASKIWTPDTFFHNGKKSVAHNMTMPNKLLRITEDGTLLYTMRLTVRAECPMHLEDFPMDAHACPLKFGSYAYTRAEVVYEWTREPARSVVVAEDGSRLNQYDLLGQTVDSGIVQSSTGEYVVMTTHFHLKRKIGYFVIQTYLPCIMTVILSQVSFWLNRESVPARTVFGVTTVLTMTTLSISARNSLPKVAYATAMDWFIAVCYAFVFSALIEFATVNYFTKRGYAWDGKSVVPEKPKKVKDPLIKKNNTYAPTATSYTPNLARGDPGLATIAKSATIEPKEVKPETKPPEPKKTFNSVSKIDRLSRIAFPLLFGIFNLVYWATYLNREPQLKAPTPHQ
T1 sequence (P47870 25-512 limits assumed): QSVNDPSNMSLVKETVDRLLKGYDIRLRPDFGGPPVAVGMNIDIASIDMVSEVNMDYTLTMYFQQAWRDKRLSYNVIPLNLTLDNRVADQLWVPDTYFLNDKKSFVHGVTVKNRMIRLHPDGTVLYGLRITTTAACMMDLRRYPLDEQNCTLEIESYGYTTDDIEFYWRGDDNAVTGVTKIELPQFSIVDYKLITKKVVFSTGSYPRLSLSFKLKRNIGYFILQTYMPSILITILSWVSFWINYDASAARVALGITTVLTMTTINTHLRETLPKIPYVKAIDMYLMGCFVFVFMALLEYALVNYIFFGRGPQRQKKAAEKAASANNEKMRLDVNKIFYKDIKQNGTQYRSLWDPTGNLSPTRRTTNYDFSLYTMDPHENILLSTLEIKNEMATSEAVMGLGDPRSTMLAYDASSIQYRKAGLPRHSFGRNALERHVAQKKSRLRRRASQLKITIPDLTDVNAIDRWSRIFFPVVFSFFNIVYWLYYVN
T1 sequence (P18507 40-467 isoform P18507-1 limits assumed): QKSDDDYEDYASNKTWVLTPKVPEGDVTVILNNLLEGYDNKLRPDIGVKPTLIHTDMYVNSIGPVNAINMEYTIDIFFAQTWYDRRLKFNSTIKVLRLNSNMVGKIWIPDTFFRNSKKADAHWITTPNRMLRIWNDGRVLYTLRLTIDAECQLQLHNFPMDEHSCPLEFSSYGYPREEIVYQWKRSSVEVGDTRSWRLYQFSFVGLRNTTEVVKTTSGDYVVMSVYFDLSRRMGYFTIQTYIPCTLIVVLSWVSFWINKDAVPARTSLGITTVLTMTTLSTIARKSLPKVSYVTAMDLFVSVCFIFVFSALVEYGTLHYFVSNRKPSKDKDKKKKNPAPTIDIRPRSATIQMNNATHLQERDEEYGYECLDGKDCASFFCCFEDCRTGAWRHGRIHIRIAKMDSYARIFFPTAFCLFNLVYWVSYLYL

Row | IGABA potentiation [1] [%] | Effect on IGABA (in words) [1] | pIC50 (α-glucosidase; dose-dependent assay 1.5625–100 µM, isolated compound and acarbose, read-out: α-glucosidase inhibition IC50) | Compound | Glucosidase-Inhibitory Activity (%) (α-glucosidase; tested at 60 μg/mL, fractions from MeOH extract of PS (plant stem) and acarbose, NAD = no activity detected)
1 | 65 ± 13 | significantly enhanced IGABA |  | COc1cc2c(=O)c3ccccc3oc2c(O)c1OC [Compound 1, 4-hydroxy-2,3-dimethoxy-9H-xanthen-9-one] | 
2 | 5 ± 7 | inactive | 4.35 | COc1cc([C@@H]2Oc3c(OC)cc4c(=O)c5ccccc5oc4c3O[C@H]2CO)ccc1O (relative stereo) [Compound 3, trans-3-(4-hydroxy-3-methoxyphenyl)-2-(hydroxymethyl)-5-methoxy-2,3-dihydro-7H-[1,4]dioxino[2,3-c]xanthen-7-one] | 
3 |  |  |  | C[C@H]1O[C@H](O[C@H]2[C@H](O)[C@@H](O)[C@@H](O[C@H]3[C@H](O)[C@@H](O)C(O)O[C@@H]3CO)O[C@@H]2CO)[C@H](O)[C@@H](O)[C@@H]1N[C@H]1C=C(CO)[C@@H](O)[C@H](O)[C@H]1O (some centres unmarked) [Acarbose, acarbose, reference compound] | 94.3 ± 1.86
4 | 36 ± 9 | significantly enhanced IGABA |  | COc1cc2c(=O)c3ccccc3oc2c(OC)c1O [Compound 2, 3-hydroxy-2,4-dimethoxy-9H-xanthen-9-one] | 
